Test results taken from patent US10793568B2, “Hormone receptor modulators for treating metabolic conditions and disorders” (ARDELYX, INC., priority 2016, dated 2020).
Read-outs that look alike come from different tables or passages of the source.

Key:
[1] = target: ligand binding domain of human FXR (Homo sapiens (Human), UniProt Q96RI1); assay: FXR ligand binding assay (LanthaScreen TR-FRET, SRC2-2 peptide recruitment); conditions: for pEC50: -log EC50, concentration required to produce 50% activation; for Emax: read-out: % Efficacy
[2] = target: human Farnesoid X receptor ligand-binding domain/Gal4 DNA binding domain chimera (Homo sapiens (Human), UniProt Q96RI1); assay: Cell-based assay of FXR activation (FXR-UAS-bla HEK 293T beta-lactamase reporter); conditions: cellular FXR beta-lactamase reporter assay; for Emax: HEK-293T, extent of activation relative to GW4064, read-out: % Efficacy; for EC50: FXR-UAS-bla HEK 293T cells, 16 h, pEC50 = -log EC50
In short: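 HEK 293T cells stably expressing a Gal4-fused human FXR LBD and a UAS-driven beta-lactamase reporter were incubated with serially diluted compounds for 16 h at 37 °C in phenol red-free DMEM with 2% charcoal-stripped FBS. CCF4 FRET read-out: excitation 409 nm, emission 447 nm. pEC50 comes from a 3-parameter logistic fit, and efficacy is given as % of GW4064.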

[3] = extent of activation relative to GW4064

human Farnesoid X receptor ligand-binding domain/Gal4 DNA binding domain chimera, sequence (Q96RI1 262-486, change not shown): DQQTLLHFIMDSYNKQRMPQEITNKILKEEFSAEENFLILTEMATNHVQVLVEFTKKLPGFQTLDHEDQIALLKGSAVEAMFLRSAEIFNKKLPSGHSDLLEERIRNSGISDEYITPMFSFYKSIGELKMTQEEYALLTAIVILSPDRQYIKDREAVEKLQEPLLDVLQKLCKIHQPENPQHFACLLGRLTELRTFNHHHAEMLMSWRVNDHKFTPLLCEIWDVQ
human Farnesoid X receptor ligand-binding domain/Gal4 DNA binding domain chimera, sequence (P04386 1-147 partner): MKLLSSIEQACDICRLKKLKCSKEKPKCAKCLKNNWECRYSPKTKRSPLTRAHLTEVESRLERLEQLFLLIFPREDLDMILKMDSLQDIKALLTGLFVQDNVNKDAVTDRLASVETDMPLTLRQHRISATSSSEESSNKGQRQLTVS
ligand binding domain of human FXR, sequence (Q96RI1 262-486): as the sequence (Q96RI1 262-486, change not shown) above

Structure (SMILES) | pEC50 [1] | Emax [1, 3] [%] | Emax [2] [%] | EC50 [2] [nM] | Emax [1] [%]
CCc1cc(C(=O)O)cc2sc(N3C(=O)[C@@H]4C[C@H]3C[C@H]4OCc3c(-c4c(Cl)cccc4Cl)noc3C3CC3)nc12 [Compound I-294, 2-[(1S,4R,5R)-5-{[5-cyclopropyl-3-(2,6-dichlorophenyl)-1,2-oxazol-4-yl]methoxy}-3-oxo-2-azabicyclo[2.2.1]heptan-2-yl]-4-ethyl-1,3-benzothiazole-6-carboxylic Acid] | 8.2 | 82 | 104 | 2.51 | –
O=P(O)(O)CCc1ccc(N2C[C@@H]3C[C@H]2C[C@H]3OCc2c(-c3c(Cl)cccc3Cl)noc2C2CC2)cc1 [Compound I-175, (2-{4-[(1S,4S,5R)-5-{[5-cyclopropyl-3-(2,6-dichlorophenyl)-1,2-oxazol-4-yl]methoxy}-2-azabicyclo[2.2.1]heptan-2-yl]phenyl}ethyl)phosphonic Acid] | 8.2 | – | 101 | 631 | 120
N#Cc1cc(C(=O)O)ccc1N1C[C@@H]2C[C@H]1C[C@H]2OCc1c(-c2c(Cl)cccc2Cl)noc1C1CC1 [Compound I-102, 3-cyano-4-[(1S,4S,5R)-5-{[5-cyclopropyl-3-(2,6-dichlorophenyl)-1,2-oxazol-4-yl]methoxy}-2-azabicyclo[2.2.1]heptan-2-yl]benzoic Acid] | 8.6 | 112 | 106 | 0.794 | –
O=C1NCCc2cc(N3C[C@@H]4C[C@H]3C[C@H]4OCc3c(-c4c(Cl)cccc4Cl)noc3C3CC3)ccc21 [Compound I-136, 6-[(1S,4S,5R)-5-{[5-cyclopropyl-3-(2,6-dichlorophenyl)-1,2-oxazol-4-yl]methoxy}-2-azabicyclo[2.2.1]heptan-2-yl]-1,2,3,4-tetrahydroisoquinolin-1-one] | 9 | – | 114 | 3.98 | 154
O=C(O)c1ccc(N2C[C@@H]3C[C@H]2C[C@H]3OCc2c(-c3c(Cl)cccc3Cl)noc2C2(F)CC2)cc1 [Compound I-56, 4-[(1S,4S,5R)-5-{[3-(2,6-dichlorophenyl)-5-(1-fluorocyclopropyl)-1,2-oxazol-4-yl]methoxy}-2-azabicyclo[2.2.1]heptan-2-yl]benzoic Acid] | 8.5 | 137 | 125 | 2 | –
O=C(O)CNC(=O)c1ccc(N2C(=O)[C@@H]3C[C@H]2C[C@H]3OCc2c(-c3c(Cl)cccc3Cl)noc2C2CC2)cc1 [Compound I-358, 2-({4-[(1S,4R,5R)-5-{[5-cyclopropyl-3-(2,6-dichlorophenyl)-1,2-oxazol-4-yl]methoxy}-3-oxo-2-azabicyclo[2.2.1]heptan-2-yl]phenyl}formamido)acetic Acid] | 8 | 155 | 124 | 631 | –
Cc1cccc(Cl)c1-c1noc(C2CC2)c1CO[C@@H]1C[C@@H]2C[C@H]1CN2c1nc2c(O[C@@H]3CCOC3)cc(C(=O)O)cc2s1 [Compound I-275, 2-((1S,4S,5R)-5-((3-(2-chloro-6-methylphenyl)-5-cyclopropylisoxazol-4-yl)methoxy)-2-azabicyclo[2.2.1]heptan-2-yl)-4-(((R)-tetrahydrofuran-3-yl)oxy)benzo[d]thiazole-6-carboxylic acid] | 8.8 | 140 | 106 | 0.631 | –
O=CN(O)Cc1ccc(N2C[C@@H]3C[C@H]2C[C@H]3OCc2c(-c3c(Cl)cccc3Cl)noc2C2CC2)cc1 [Compound I-161, N-({4-[(1S,4S,5R)-5-{[5-cyclopropyl-3-(2,6-dichlorophenyl)-1,2-oxazol-4-yl]methoxy}-2-azabicyclo[2.2.1]heptan-2-yl]phenyl}methyl)-N-hydroxyformamide] | 6.9 | 134 | 102 | 12.6 | –
